Results from US20260053811A1, “METHODS OF TREATING HYPERTENSION IN OBESE SUBJECTS” (Mineralys Therapeutics, Inc., priority 2022, published 2026).

Test system: hypertensive subjects
Assay: Adverse events (TEAEs, SAEs, AESI, study drug discontinuation, dose modification);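 note: counts of spontaneously reported adverse events in the Safety Analysis Set, subjects grouped by treatment actually received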
Type: in vivo, human
Excerpt: In analyses performed on the Safety Analysis Set, subjects will be analyzed according to their actual treatment received.

CC(=O)N[C@H]1CC[C@H](NC(=O)CN2CCN(c3nncc(-c4ccc(C)cc4)n3)CC2)CC1 [Compound A HBr]
TEAE leading to permanent discontinuation from study drug: Orthostatic hypotension (Part 1, 100 mg QD (N = 30)): 0 n (%) | TEAE leading to permanent discontinuation from study drug: Vascular disorders (Part 1, 100 mg QD (N = 30)): 1 (3.3) n (%) | On-treatment TEAE: Blood and lymphatic system disorders (Part 1, Active (N = 133)): 2 (1.5) n (%) | On-treatment TEAE: Blood and lymphatic system disorders, Mild (Part 1, Active (N = 133)): 2 (1.5) n (%) | On-treatment TEAE: Blood creatinine increased (Part 1, Active (N = 133)): 3 (2.3) n (%) | On-treatment TEAE: Blood creatinine increased, Mild (Part 1, Active (N = 133)): 3 (2.3) n (%) | On-treatment TEAE: Cardiac disorders (Part 1, Active (N = 133)): 4 (3.0) n (%) | On-treatment TEAE: Cortisol decreased (Part 1, Active (N = 133)): 3 (2.3) n (%) | On-treatment TEAE: Cortisol decreased, Mild (Part 1, Active (N = 133)): 3 (2.3) n (%) | On-treatment TEAE: Dizziness (Part 1, Active (N = 133)): 3 (2.3) n (%) | On-treatment TEAE: Gastrointestinal disorders (Part 1, Active (N = 133)): 6 (4.5) n (%) | On-treatment TEAE: Gastrointestinal disorders, Mild (Part 1, Active (N = 133)): 5 (3.8) n (%) | On-treatment TEAE: General disorders and administration site conditions (Part 1, Active (N = 133)): 5 (3.8) n (%) | On-treatment TEAE: General disorders and administration site conditions, Mild (Part 1, Active (N = 133)): 2 (1.5) n (%) | On-treatment TEAE: Glomerular filtration rate decreased (Part 1, Active (N = 133)): 9 (6.8) n (%) | On-treatment TEAE: Glomerular filtration rate decreased, Mild (Part 1, Active (N = 133)): 8 (6.0) n (%) | On-treatment TEAE: Headache (Part 1, Active (N = 133)): 3 (2.3) n (%) | On-treatment TEAE: Headache, Mild (Part 1, Active (N = 133)): 3 (2.3) n (%) | On-treatment TEAE: Hyperkalaemia (Part 1, Active (N = 133)): 31 (23.3) n (%) | On-treatment TEAE: Hyperkalaemia, Mild (Part 1, Active (N = 133)): 26 (19.5) n (%) | On-treatment TEAE: Hyperkalaemia, Moderate (Part 1, Active (N = 133)): 4 (3.0) n (%) | On-treatment TEAE: Hyperkalaemia, Severe (Part 1, Active (N = 133)): 1 (0.8) n (%) | On-treatment TEAE: Hypertension (Part 1, Active (N = 133)): 5 (3.8) n (%) | On-treatment TEAE: Hypertension, Moderate (Part 1, Active (N = 133)): 3 (2.3) n (%) | On-treatment TEAE: Infections and infestations (Part 1, Active (N = 133)): 11 (8.3) n (%) | On-treatment TEAE: Infections and infestations, Mild (Part 1, Active (N = 133)): 5 (3.8) n (%) | On-treatment TEAE: Infections and infestations, Moderate (Part 1, Active (N = 133)): 6 (4.5) n (%) | On-treatment TEAE: Investigations (Part 1, Active (N = 133)): 21 (15.8) n (%) | On-treatment TEAE: Investigations, Mild (Part 1, Active (N = 133)): 17 (12.8) n (%) | On-treatment TEAE: Investigations, Moderate (Part 1, Active (N = 133)): 4 (3.0) n (%) | On-treatment TEAE: Metabolism and nutrition disorders (Part 1, Active (N = 133)): 34 (25.6) n (%) | On-treatment TEAE: Metabolism and nutrition disorders, Mild (Part 1, Active (N = 133)): 29 (21.8) n (%) | On-treatment TEAE: Metabolism and nutrition disorders, Moderate (Part 1, Active (N = 133)): 4 (3.0) n (%) | On-treatment TEAE: Nervous system disorders (Part 1, Active (N = 133)): 8 (6.0) n (%) | On-treatment TEAE: Nervous system disorders, Mild (Part 1, Active (N = 133)): 6 (4.5) n (%) | On-treatment TEAE: Orthostatic hypotension (Part 1, Active (N = 133)): 3 (2.3) n (%) | On-treatment TEAE: Orthostatic hypotension, Mild (Part 1, Active (N = 133)): 3 (2.3) n (%) | On-treatment TEAE: Psychiatric disorders (Part 1, Active (N = 133)): 3 (2.3) n (%) | On-treatment TEAE: Psychiatric disorders, Moderate (Part 1, Active (N = 133)): 3 (2.3) n (%) | On-treatment TEAE: Urinary tract infection (Part 1, Active (N = 133)): 7 (5.3) n (%) | On-treatment TEAE: Urinary tract infection, Mild (Part 1, Active (N = 133)): 4 (3.0) n (%) | On-treatment TEAE: Vascular disorders (Part 1, Active (N = 133)): 9 (6.8) n (%) | On-treatment TEAE: Vascular disorders, Mild (Part 1, Active (N = 133)): 5 (3.8) n (%) | On-treatment TEAE: Vascular disorders, Moderate (Part 1, Active (N = 133)): 4 (3.0) n (%) | On-treatment TEAE: any, Mild (Part 1, Active (N = 133)): 47 (35.3) n (%) | On-treatment TEAE: any, Moderate (Part 1, Active (N = 133)): 25 (18.8) n (%) | On-treatment TEAE: any, Severe (Part 1, Active (N = 133)): 1 (0.8) n (%) | Subjects with any On-treatment TEAEs leading to withdrawal from study drug (Part 1, Active (N = 133)): 10 (7.5) n (%) | TEAE leading to permanent discontinuation from study drug: Activated partial thromboplastin time prolonged (Part 1, Active (N = 133)): 1 (0.8) n (%) | TEAE leading to permanent discontinuation from study drug: Cardiac disorders (Part 1, Active (N = 133)): 1 (0.8) n (%) | TEAE leading to permanent discontinuation from study drug: Coronary artery disease (Part 1, Active (N = 133)): 1 (0.8) n (%) | TEAE leading to permanent discontinuation from study drug: Dizziness (Part 1, Active (N = 133)): 1 (0.8) n (%) | TEAE leading to permanent discontinuation from study drug: Hyperkalaemia (Part 1, Active (N = 133)): 5 (3.8) n (%) | TEAE leading to permanent discontinuation from study drug: Hypertension (Part 1, Active (N = 133)): 1 (0.8) n (%) | TEAE leading to permanent discontinuation from study drug: Hypotension (Part 1, Active (N = 133)): 1 (0.8) n (%) | TEAE leading to permanent discontinuation from study drug: Investigations (Part 1, Active (N = 133)): 1 (0.8) n (%) | TEAE leading to permanent discontinuation from study drug: Metabolism and nutrition disorders (Part 1, Active (N = 133)): 5 (3.8) n (%) | TEAE leading to permanent discontinuation from study drug: Nervous system disorders (Part 1, Active (N = 133)): 1 (0.8) n (%) | TEAE leading to permanent discontinuation from study drug: Orthostatic hypotension (Part 1, Active (N = 133)): 1 (0.8) n (%) | TEAE leading to permanent discontinuation from study drug: Vascular disorders (Part 1, Active (N = 133)): 3 (2.3) n (%) | Dose titration: Hyperkalemia, subjects n (%) (Part 1 All active (N 159)): 6 (3.8%) | Dose titration: Hyponatremia, subjects n (%) (Part 1 All active (N 159)): 0 | Dose titration: Other possibly related, subjects n (%) (Part 1 All active (N 159)): 0 | Dose titration: Other unrelated, subjects n (%) (Part 1 All active (N 159)): 1 (0.6%) | Study drug discontinuation: Hyperkalemia, subjects n (%) (Part 1 All active (N 159)): 6 (3.8%) | Study drug discontinuation: Hyponatremia, subjects n (%) (Part 1 All active (N 159)): 0 | Study drug discontinuation: Hypotension, subjects n (%) (Part 1 All active (N 159)): 2 (1.2%) | Study drug discontinuation: Other possibly related, subjects n (%) (Part 1 All active (N 159)): 1 (0.6%) | Study drug discontinuation: Other unrelated, subjects n (%) (Part 1 All active (N 159)): 11 (6.9%) | Deaths (Part 1 or Part 2): No deaths were reported | Subjects with TEAE resulting in dose modification (Part 2): 7 | Dose titration: Hyperkalemia, subjects n (%) (Part 2 100mg QD (N 31)): 1 (3.2%) | Dose titration: Hyponatremia, subjects n (%) (Part 2 100mg QD (N 31)): 1 (3.2%) | Dose titration: Other possibly related, subjects n (%) (Part 2 100mg QD (N 31)): 0 | Dose titration: Other unrelated, subjects n (%) (Part 2 100mg QD (N 31)): 0 | Study drug discontinuation: Hyperkalemia, subjects n (%) (Part 2 100mg QD (N 31)): 0 | Study drug discontinuation: Hyponatremia, subjects n (%) (Part 2 100mg QD (N 31)): 1 (3.4%) | Study drug discontinuation: Hypotension, subjects n (%) (Part 2 100mg QD (N 31)): 1 (2.8%) | Study drug discontinuation: Other possibly related, subjects n (%) (Part 2 100mg QD (N 31)): 0 | Study drug discontinuation: Other unrelated, subjects n (%) (Part 2 100mg QD (N 31)): 1 (2.8%) | Subjects with any On-treatment TEAEs leading to withdrawal from study drug (Part 2, 100 mg QD (N = 31)): 2 (6.5) n (%) | TEAE leading to permanent withdrawal from study drug: Glomerular filtration rate decreased (Part 2, 100 mg QD (N = 31)): 1 (3.2) n (%) | TEAE leading to permanent withdrawal from study drug: Hyponatraemia (Part 2, 100 mg QD (N = 31)): 1 (3.2) n (%) | TEAE leading to permanent withdrawal from study drug: Investigations (Part 2, 100 mg QD (N = 31)): 1 (3.2) n (%) | TEAE leading to permanent withdrawal from study drug: Metabolism and nutrition disorders (Part 2, 100 mg QD (N = 31)): 1 (3.2) n (%) | TEAE leading to permanent withdrawal from study drug: Muscle spasms (Part 2, 100 mg QD (N = 31)): 1 (3.2) n (%) | TEAE leading to permanent withdrawal from study drug: Musculoskeletal and connective tissue disorders (Part 2, 100 mg QD (N = 31)): 1 (3.2) n (%) | Subjects with muscle spasms (PT) (Part 2, 100 mg QD cohort): 3 (9.7%) | Subjects with ≥1 moderate on-treatment TEAE (Part 2, 100 mg QD cohort): 12 (38.7%) | Dose titration: Hyperkalemia, subjects n (%) (Total active (N 190)): 7 (4.1%) | Dose titration: Hyponatremia, subjects n (%) (Total active (N 190)): 1 (0.5%) | Dose titration: Other possibly related, subjects n (%) (Total active (N 190)): 0 | Dose titration: Other unrelated, subjects n (%) (Total active (N 190)): 1 (0.5%) | Study drug discontinuation: Hyperkalemia, subjects n (%) (Total active (N 190)): 6 (3.2%) | Study drug discontinuation: Hyponatremia, subjects n (%) (Total active (N 190)): 1 (0.5%) | Study drug discontinuation: Hypotension, subjects n (%) (Total active (N 190)): 3 (1.6%) | Study drug discontinuation: Other possibly related, subjects n (%) (Total active (N 190)): 1 (0.5%) | Study drug discontinuation: Other unrelated, subjects n (%) (Total active (N 190)): 12 (6.3%) | Subjects who developed orthostatic hypotension (fall of 20 mmHg SBP or 10 mmHg DBP sitting to standing): three | Episodes of severe hyperkalemia (pooled (Part 1 and Part 2) 100 mg QD safety set (n=60)): no episodes of severe hyperkalemia | Subjects with hypotension related to treatment (two in 100 mg QD cohorts (Part 1, Part 2), one in 12.5 mg BID): three | Serious adverse events (SAEs) related to the study medication (whole trial (Example 1 analysis)): No serious adverse events (SAEs) related to the study medication were observed
